Article PMC9854774, “Monocarbonyl Curcumin Analogues as Potent Inhibitors against Human Glutathione Transferase P1-1” (Antioxidants, 2022)
Entries after “also recorded” stand apart in the source; their conditions may differ. Like-named read-outs stand apart in the source and are kept apart here.

How the values were obtained:
hGSTP1-1 [1] = target: T1, hGSTP1-1 (Homo sapiens, UniProt P09211); experiment: hGSTP1-1 enzyme activity/inhibition assay (CDNB-GSH conjugation, 340 nm); assay type: biochemical; conditions: recombinant hGSTP1-1, 25 °C; for Enzyme Inhibition (%) / inhibition at 100 µM: compound at final concentration of 100 μM; for IC50: CDNB/GSH assay, read-out: IC50 against hGSTP1-1
T1 construct: made in house; host or cells: E. coli BL21 (DE3)
Description: Determination of hGSTP1-1 activity was performed by monitoring the formation of the conjugate between CDNB and GSH and measuring the absorption at λ = 340 nm (ε = 9600 L·mol^−1·cm^−1) at 25 °C for 120 s, as described previously. One unit of enzyme activity is defined as the amount of enzyme that produces 1.0 μmol of product per minute under the assay conditions. Curcuminoids and monocarbonyl curcumin analogues were dissolved in DMSO (100 μΜ) and added to the assay mixture (the volume of DMSO was maintained at 2% v/v final concentration). The mixture was incubated at 25 °C for 1 min, prior to adding the enzyme sample. Initial velocities were determined in triplicates and were corrected for spontaneous reaction rates, when necessary. […] The IC50 values were determined from a graph of the remaining GST activity (%) against inhibitor concentration.
(§1) The computer program GraphPad Prism version 8 (GraphPad Prism Software, Inc., San Diego, CA, USA) was used for producing kinetic graphs and determining apparent kinetic parameters/constants and IC50 values.

hGSTP1-1 [2] = target: T1, hGSTP1-1; design: method as in PMID 9463521, PMID 17046132; conditions: pH 7.4; presumably covalent binding to Cys-47; cited from earlier work
hGSTP1-1 [3] = target: T1, hGSTP1-1; experiment: Circular dichroism study of enzyme conformation; conditions: 5 μΜ inhibitor; 0.1 mg/mL hGSTP1-1, 2.5 mM GSH (± 1 mM CDNB), pH 6.5
Description: CD studies were performed using a JASCO J-715 spectropolarimeter (Jasco Co., Tokyo, Japan) equipped with Peltier temperature controller (Jasco Co., Tokyo, Japan), at 25 °C and a wavelength range of 190–400 nm using a 1-mm-path length quartz cuvette. Each CD spectrum is the average of three scans at 200 nm·min^−1 and a resolution of 0.5 nm. The CD solutions were prepared by mixing the appropriate volumes of stock solutions to give final concentrations of 0.1 mg/mL of hGSTP1-1, 2.5 mM of GSH, 1 mM of CDNB, and 5 μΜ of inhibitor in potassium phosphate buffer (100 mM, pH 6.5) at room temperature, while CD spectra of plain solutions of GSH, CDNB, DM96, and DM62 at the same concentrations were also run as controls (see supporting information). The analysis of the CD data was performed using the OriginPro 9 program and the content of the secondary structure was calculated through the CDNN Circular Dichroism Spectroscopy Deconvolution software.

hGSTP1-1 [4] = target: T1, hGSTP1-1; experiment: Kinetic inhibition analysis of hGSTP1-1 (Lineweaver-Burk); assay type: biochemical; conditions: for Experimental Binding Free Energy ΔGexp: calculated from Ki; for Experimental Binding Free Energy ΔG′exp: calculated from Ki΄; for Type of Inhibition: pH 6.5, 25 °C; for Inhibition Constant Ki΄: binding to enzyme-substrate complex; for Ki: binding to free enzyme, read-out: Inhibition Constant Ki
Description: as §1
Initial velocities (25 °C) for the hGSTP1-1-catalyzed reaction with CDNB as a variable substrate were determined in reaction mixtures (1 mL total volume) containing potassium phosphate buffer (100 mM, pH 6.5), 2.5 mM GSH, and different concentrations of CDNB (typically 14–1000 μM) in the absence and presence of inhibitors (DM96, DM151, DM109, DMC, 0–50 μM). Initial velocities for the hGSTP1-1-catalyzed reaction with GSH as a variable substrate were determined in reaction mixtures (1 mL total volume) (25 °C) containing potassium phosphate buffer (100 mM, pH 6.5), 1 mM CDNB, and different concentrations of GSH (typically 37.5–3750 μΜ) in the absence and presence of inhibitors (DM96, DM151, DM109, Curcumin II, 0–50 μM).

DU-145 cells = experiment: In vitro cytotoxicity, MTT colorimetric assay; assay type: cell-based, human; conditions: read-out: IC50 against DU-145
Description: DU-145 cells were grown in Dulbecco’s modified eagle medium (DMEM) growth medium of pH 7.4, supplemented with 10% fetal bovine serum (FBS), penicillin (100 U·mL^−1), glutamine (2 mM), and streptomycin (100 μg·mL^−1). Cell cultures were maintained in flasks and were grown at 37 °C in a humidified atmosphere of 5% CO2 in air. […] The subcultivation ratio was 1:2 to 1:5.
Cells were seeded in 96-well plates (8 × 10^3 cells/well in 100 μL culture medium) and grown overnight at 37 °C in a 5% CO2 incubator. Exponentially growing cells were incubated for 48 h with various concentrations ranging between 10^−3–10^−[…] of each derivative, and the final DMSO concentration never exceeded 0.2%. The medium was then removed and replaced with 100 μL of MTT solution (1 mg·mL^−1). After a 4 h incubation, the solution was aspirated, formazan crystals were solubilized in 100 μL of DMSO, and absorbance was recorded at 540 nm on a Tecan well plate reader. The results were expressed as % cell viability = (mean optical density (OD) of treated cells/mean OD of untreated cells) × 100.

[5] = test system: native GST extracted from DU-145 cells; experiment: Inhibition of native GST activity in DU-145 cell lysate; assay type: biochemical, human; conditions: inhibitor at its IC50 for recombinant hGSTP1-1, 25 °C
Description: DU-145 cells were trypsinized, transferred to a Falcon tube, and centrifuged at 1500× g for 10 min. Subsequently, DMEM was removed and the cell pellet was resuspended in 1 mL of potassium phosphate buffer. The cells were lysed by sonication, the suspension was centrifuged at 13,000× g for 5 min, and the supernatant was collected.

[6] = variable substrate CDNB, 2.5 mM GSH
[7] = variable substrate GSH, 1 mM CDNB
[8] = Homo sapiens, DU-145, 48 h, MTT, 48 h incubation

T1 sequence (P09211 2-210 limits assumed): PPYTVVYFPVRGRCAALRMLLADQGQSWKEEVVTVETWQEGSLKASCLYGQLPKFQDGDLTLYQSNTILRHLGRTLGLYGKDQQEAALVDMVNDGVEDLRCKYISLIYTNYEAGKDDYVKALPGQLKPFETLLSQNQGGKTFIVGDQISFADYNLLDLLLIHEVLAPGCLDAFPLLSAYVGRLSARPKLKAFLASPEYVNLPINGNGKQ

2,6-bis(3,4-dihydroxybenzylidene)cyclohexanone [DM57]
Enzyme Inhibition (%) (hGSTP1-1 [1]): 16.75 ± 3.61%

2,6-dibenzylidenecyclohexanone [DM15]
Enzyme Inhibition (%) (hGSTP1-1 [1]): 66.23 ± 2.57%

COc1cc(/C=C/C(=O)CC(=O)/C=C/c2ccc(O)c(OC)c2)ccc1O [Curcumin]
Mode of inhibition of hGSTP1-1 (hGSTP1-1 [2]): irreversible inhibitor

COc1ccc(/C=C2\CCC/C(=C\c3ccc(OC)cc3)C2=O)cc1 [DM46, 2,6-bid(4-methoxybenzylidene)cyclohexanone]
inhibition at 100 µM (hGSTP1-1 [1]): 8.5 ± 2.13%

O=C1/C(=C/c2ccc(F)cc2)CCC/C1=C\c1ccc(F)cc1 [DM62, (2E,6E)-2,6-bis(4-fluorobenzylidene)cyclohexanone]
Effect on CD spectrum / conformation of the enzyme (hGSTP1-1 [3]): does not cause the conformational changes observed with DM96
inhibition at 100 µM (hGSTP1-1 [1]): 8.4 ± 0.36%

COc1ccc(/C=C/C(=O)/C=C/c2ccc(OC)c(OC)c2)cc1OC [DM95, (1E,4E)-1,5-bis(3,4-dimethoxyphenyl)penta-1,4-dien-3-one]
inhibition at 100 µM (hGSTP1-1 [1]): 44.2 ± 3.06%

O=C(C=Cc1ccc(O)cc1)C=Cc1ccc(O)cc1 [DM96, 1,5-bis(4-hydroxyphenyl)penta-1,4-dien-3-one]
Effect on CD spectrum / conformation of the enzyme (hGSTP1-1 [3]): causes a great change in the CD spectrum
Experimental Binding Free Energy ΔGexp (hGSTP1-1 [4]; variable substrate CDNB): -7.71 kcal/mol
Experimental Binding Free Energy ΔGexp (hGSTP1-1 [4]; variable substrate GSH): -7.71 kcal/mol
Experimental Binding Free Energy ΔG′exp (hGSTP1-1 [4]; variable substrate CDNB): -7.52 kcal/mol
Experimental Binding Free Energy ΔG′exp (hGSTP1-1 [4]; variable substrate GSH): -8.29 kcal/mol
Type of Inhibition (hGSTP1-1 [4]; [6]): mixed-type inhibitor; also recorded: Purely mixed
Inhibition Constant Ki΄ (hGSTP1-1 [4]; variable substrate CDNB): 4.97 ± 2.86 μΜ
Ki (hGSTP1-1 [4]; variable substrate CDNB): 3.67 µM
Type of Inhibition (hGSTP1-1 [4]; [7]): partially mixed; also recorded: Partial mixed
Inhibition Constant Ki΄ (hGSTP1-1 [4]; variable substrate GSH): 1.45 ± 0.43 μΜ
Ki (hGSTP1-1 [4]; variable substrate GSH): 3.69 µM
IC50 (DU-145 cells; [8]): 8.6 ± 1.07 µM
IC50 (hGSTP1-1 [1]): 5.45 ± 1.08 µM
inhibition at 100 µM (hGSTP1-1 [1]): ~95%
Enzyme Inhibition (%) (hGSTP1-1 [1]; 100 µM): 86.99 ± 1.88%

COc1cc(C=C2CCCC(=Cc3ccc(O)c(OC)c3)C2=O)ccc1O [DM100, 2,6-bis(3-methoxy-4-hydroxy-benzylidene)cyclohexanone]
inhibition at 100 µM (hGSTP1-1 [1]): 40 ± 1.84%

O=C(/C=C/c1ccc(F)cc1)/C=C/c1ccc(F)cc1 [DM109, (1E,4E)-1,5-bis(4-fluorophenyl)penta-1,4-dien-3-one]
Experimental Binding Free Energy ΔGexp (hGSTP1-1 [4]; variable substrate CDNB): ΔGexp = −6.66 kcal/mol
Experimental Binding Free Energy ΔGexp (hGSTP1-1 [4]; variable substrate GSH): ΔGexp = −5.96 kcal/mol
Type of Inhibition (hGSTP1-1 [4]; [6]): Purely non-competitive
Ki (hGSTP1-1 [4]; variable substrate CDNB): 20.1 µM
Type of Inhibition (hGSTP1-1 [4]; [7]): Purely non-competitive
Ki (hGSTP1-1 [4]; variable substrate GSH): 35.1 µM
IC50 (DU-145 cells; [8]): 44.6 ± 1.08 µM
IC50 (DU-145 cells; MTT, 48 h incubation): 46.1 ± 3.68 µM
IC50 (hGSTP1-1 [1]): 19.5 ± 1.04 µM
inhibition at 100 µM (hGSTP1-1 [1]): ~95%
Enzyme Inhibition (%) (hGSTP1-1 [1]; 100 µM): 79.06 ± 2.54%

O=C(/C=C/c1ccc(O)c(O)c1)/C=C/c1ccc(O)c(O)c1 [DM148, (1E,4E)-1,5-bis(3,4-dihydroxyphenyl)penta-1,4-dien-3-one]
inhibition at 100 µM (hGSTP1-1 [1]): 54.8 ± 0.52%

O=C1C(=Cc2ccc(O)c(O)c2)CCCC1=Cc1ccc(O)c(O)c1 [DM151, 2,6-bis(3,4-dihydroxybenzylidene)cyclohexanone]
Enzyme Inhibition (%) [5]: did not show any inhibition at all; also recorded: No inhibition was observed
Experimental Binding Free Energy ΔGexp (hGSTP1-1 [4]; variable substrate CDNB): ΔGexp = −7.12 kcal/mol
Experimental Binding Free Energy ΔGexp (hGSTP1-1 [4]; variable substrate GSH): ΔGexp = −7.43 kcal/mol
Type of Inhibition (hGSTP1-1 [4]; [6]): Purely non-competitive
Ki (hGSTP1-1 [4]; variable substrate CDNB): 9.55 µM
Type of Inhibition (hGSTP1-1 [4]; [7]): Purely non-competitive
Ki (hGSTP1-1 [4]; variable substrate GSH): 5.79 µM
IC50 (DU-145 cells; [8]): 46.1 ± 3.68 µM
IC50 (DU-145 cells; MTT, 48 h incubation): 44.6 ± 1.08 µM
IC50 (hGSTP1-1 [1]): 11.2 ± 1.03 µM
Enzyme Inhibition (%) (hGSTP1-1 [1]; 100 µM): 88.18 ± 3.65%

COc1cc(/C=C/C(O)=C/C(=O)/C=C/c2ccc(O)cc2)ccc1O [DMC, Demethoxycurcumin]
Experimental Binding Free Energy ΔGexp (hGSTP1-1 [4]; variable substrate CDNB): -7.66 kcal/mol
Experimental Binding Free Energy ΔGexp (hGSTP1-1 [4]; variable substrate GSH): -5.91 kcal/mol
Experimental Binding Free Energy ΔG′exp (hGSTP1-1 [4]; variable substrate CDNB): -7.98 kcal/mol
Experimental Binding Free Energy ΔG′exp (hGSTP1-1 [4]; variable substrate GSH): -6.07 kcal/mol
Type of Inhibition (hGSTP1-1 [4]; variable substrate CDNB, 2.5 mM GSH, listed as Curcumin II): Partially mixed
Inhibition Constant Ki΄ (hGSTP1-1 [4]; variable substrate CDNB): 2.36 ± 1.37 μΜ
Ki (hGSTP1-1 [4]; variable substrate CDNB): 3.99 µM
Type of Inhibition (hGSTP1-1 [4]; variable substrate GSH, 1 mM CDNB, listed as Curcumin II): Partially mixed
Inhibition Constant Ki΄ (hGSTP1-1 [4]; variable substrate GSH): 52.83 ± 12.25 μΜ
Ki (hGSTP1-1 [4]; variable substrate GSH): 68 µM
IC50 (DU-145 cells; Homo sapiens, DU-145, 48 h): 48.5 ± 1.09 µM
IC50 (hGSTP1-1 [1]): 37.7 ± 1.02 µM
Enzyme Inhibition (%) (hGSTP1-1 [1]; 100 µM): 94.56 ± 0.25%
